# Experimental data published in ChEMBL document CHEMBL6121019, “Design, synthesis and biological evaluation of bisnoralcohol derivatives as novel IRF4 inhibitors for the treatment of multiple myeloma” (Eur J Med Chem, 2025).
# The source made the active and inactive calls. No cut-off for these calls is given here.
# Experiments:
# NCI-H929 [1] = experiment: Inhibition of ERK phosphorylation level in human NCI-H929 cells at 0.1 to 1 uM by Western blot analysis; assay type: functional, cell-based; conditions: dose 0.1-1 µM
# [2] = Apparent volume of distribution in ICR mouse plasma at 1.0 mg/kg, iv; assay type: ADME, organism-based; conditions: read-out: Vz
# [3] = Cmax in ICR mouse plasma at 1.0 mg/kg, iv; assay type: ADME, organism-based
# [4] = Antiproliferative activity against human MM1.R cells assessed as inhibition of cell viability measured after 72 hrs by MTS assay; assay type: functional, cell-based; conditions: MM.1R
# [5] = AUC (0 to infinity) in ICR mouse plasma at 10 mg/kg, po; assay type: ADME, organism-based
# MM.1R [6] = experiment: Downregulation of Blimp1 expression in human MM1.R cells measured after 24 hrs by qRT-PCR analysis; assay type: functional, cell-based; conditions: dose 0.125-1 µM
# NCI-H929 [7] = experiment: Antitumor activity against human NCI-H929 cells xenografted in Balb/C nude mouse model assessed as inhibition of Akt phosphorylation level at 25 mg/kg by Western blot analysis; assay type: functional, organism-based
# MM.1R [8] = experiment: Inhibition of ERK phosphorylation level in human MM1.R cells at 0.1 to 1 uM by Western blot analysis; assay type: functional, cell-based; conditions: dose 0.1-1 µM
# [9] = Selectivity ratio IC50 for human RPMI-8226 cells to IC50 for human MM1.R cells; assay type: toxicity
# NCI-H929 [10] = experiment: Induction of cell cycle arrest in human NCI-H929 cells assessed as accumulation of cells at S phase at 0.25 uM measured after 24 hrs by flow cytometry analysis (reference value: 32.14%); assay type: functional
# [11] = Potency index, ratio of IC50 for lenalidomide to test compound IC50 for antiproliferative activity against human MM1.R cells assessed as inhibition of cell growth measured after 72 hrs by MTS assay; assay type: functional
# NCI-H929 [12] = experiment: Effect on IRF4 expression in human NCI-H929 cells with siRNA mediated IRF4 knockdown by Western blot analysis; assay type: functional, cell-based
# [13] = Selectivity ratio IC50 for human RPMI-8226 cells to IC50 for human NCI-H929 cells; assay type: toxicity
# [14] = Tmax in ICR mouse plasma at 1.0 mg/kg, iv; assay type: ADME, organism-based
# MM.1R [15] = experiment: Effect on IRF4 expression in human MM1.R cells with siRNA mediated IRF4 knockdown by Western blot analysis; assay type: functional, cell-based
# MM.1R [16] = experiment: Antiproliferative activity against human MM1.R cells with siRNA mediated IRF4#1 knockdown at 0.125 to 1 uM measured upto 5 days by MTS assay; assay type: functional, cell-based; conditions: dose 0.125-1 µM, time <= 5.0 day
# NCI-H929 [17] = experiment: Antitumor activity against human NCI-H929 cells xenografted in Balb/C nude mouse model assessed as inhibition of inhibition of cyclin D1 expression at 25 mg/kg by Western blot analysis; assay type: functional, organism-based
# [18] = Terminal elimination half life in ICR mouse plasma at 1.0 mg/kg, iv; assay type: ADME, organism-based; conditions: read-out: beta t1/2 (converted)
# RPMI-8226 [19] = experiment: Antiproliferative activity against human RPMI-8226 cells assessed as inhibition of cell viability measured after 72 hrs by MTS assay; assay type: functional, cell-based; conditions: RPMI-8226, 72 h
# NCI-H929 [20] = experiment: Induction of cell cycle arrest in human NCI-H929 cells assessed as accumulation of cells at G2 phase at 0.25 uM measured after 24 hrs by flow cytometry analysis (reference value: 13.37%); assay type: functional
# [21] = Cmax in ICR mouse plasma at 10 mg/kg, po; assay type: ADME, organism-based
# HAF = experiment: Effect on IRF4 expression in human HAF cells by Western blot analysis; assay type: functional, cell-based
# [22] = Potency index, ratio of IC50 for lenalidomide to test compound IC50 for antiproliferative activity against human RPMI-8226 cells assessed as inhibition of cell growth measured after 72 hrs by MTS assay; assay type: functional
# MM.1R [23] = experiment: Downregulation of HK2 expression in human MM1.R cells measured after 24 hrs by qRT-PCR analysis; assay type: functional, cell-based; conditions: dose 0.125-1 µM
# RPMI-8226 [24] = experiment: Antiproliferative activity against human RPMI-8226 cells overexpressing IRF4 at 0.125 to 1 uM measured after 72 hrs by MTS assay; assay type: functional, cell-based; conditions: dose 0.125-1 µM
# MM.1R [25] = experiment: Inhibition of AKT phosphorylation level in human MM1.R cells at 0.1 to 1 uM by Western blot analysis; assay type: functional, cell-based; conditions: dose 0.1-1 µM
# NCI-H929 [26] = experiment: Induction of cell cycle arrest in human NCI-H929 cells assessed as accumulation of cells at G1 phase at 0..5 uM measured after 24 hrs by flow cytometry analysis (reference value: 54.12%); assay type: functional
# MM.1R [27] = experiment: Antiproliferative activity against human MM1.R cells with siRNA mediated IRF4 knockdown measured upto 5 days by MTS assay; assay type: functional, cell-based; conditions: time <= 5.0 day
# HaCaT = experiment: Effect on IRF4 expression in human HaCaT cells by Western blot analysis; assay type: functional, cell-based
# [28] = Terminal elimination half life in ICR mouse plasma at 10 mg/kg, po; assay type: ADME, organism-based; conditions: read-out: beta t1/2 (converted)
# NCI-H929 [29] = experiment: Downregulation of CMYC expression in human NCI-H929 cells measured after 24 hrs by qRT-PCR analysis; assay type: functional, cell-based; conditions: dose 0.125-1 µM
# NCI-H929 [30] = experiment: Induction of cell cycle arrest in human NCI-H929 cells assessed as accumulation of cells at G1 phase at 0.125 uM measured after 24 hrs by flow cytometry analysis (reference value: 54.12%); assay type: functional
# NCI-H929 [31] = experiment: Induction of cell cycle arrest in human NCI-H929 cells assessed as inhibition of cyclin D1 protein expression at 0.1 to 1 uM; assay type: functional, cell-based; conditions: dose 0.1-1 µM
# NCI-H929 [32] = experiment: Inhibition of AKT phosphorylation level in human NCI-H929 cells at 0.1 to 1 uM by Western blot analysis; assay type: functional, cell-based; conditions: dose 0.1-1 µM
# NCI-H929 [33] = experiment: Antiproliferative activity against human NCI-H929 cells with siRNA mediated IRF4#1 knockdown at 0.125 to 1 uM measured upto 5 days by MTS assay; assay type: functional, cell-based; conditions: dose 0.125-1 µM, time <= 5.0 day
# MM.1R [34] = experiment: Antiproliferative activity against human MM1.R cells assessed as inhibition of 3D clone forming ability measured after 2 to 3 weeks; assay type: functional, cell-based; conditions: dose 0.125-1 µM, time 2-3 weeks
# MM.1R [35] = experiment: Downregulation of CANX expression in human MM1.R cells measured after 24 hrs by qRT-PCR analysis; assay type: functional, cell-based; conditions: dose 0.125-1 µM
# NCI-H929 [36] = experiment: Downregulation of Blimp1 expression in human NCI-H929 cells measured after 24 hrs by qRT-PCR analysis; assay type: functional, cell-based; conditions: dose 0.125-1 µM
# [37] = Toxicity in Balb/C nude mouse assessed as change in body weight at 12.5 to 25 mg/kg administered once daily and measured every three days for 34 days; assay type: organism-based; conditions: in vivo, 816 h, dose 12.5-25 mg/kg, time 34 day
# NCI-H929 [38] = experiment: Antitumor activity against human NCI-H929 cells xenografted in Balb/C nude mouse model assessed as increase in gammaH2AX expression at 25 mg/kg by Western blot analysis; assay type: functional, organism-based
# MM.1R [39] = experiment: Induction of cell cycle arrest in human MM1.R cells assessed as inhibition of cyclin D1 protein expression at 0.1 to 1 uM; assay type: functional, cell-based; conditions: dose 0.1-1 µM
# MM.1R [40] = experiment: Downregulation of CCNC expression in human MM1.R cells measured after 24 hrs by qRT-PCR analysis; assay type: functional, cell-based; conditions: dose 0.125-1 µM
# NCI-H929 [41] = experiment: Downregulation of E2F5 expression in human NCI-H929 cells measured after 24 hrs by qRT-PCR analysis; assay type: functional, cell-based; conditions: dose 0.125-1 µM
# [42] = Antiproliferative activity against human HaCaT cells assessed as inhibition of cell viability measured after 72 hrs by MTS assay; assay type: toxicity, cell-based
structure (smiles),measurement,setting,value
COc1ccc(NC(=O)[C@@H](C)[C@H]2CC[C@H]3[C@@H]4C(=O)C=C5C(C)(C)C(=O)C(C#N)=C[C@]5(C)[C@H]4CC[C@]23C)cc1,inhibition,NCI-H929 [1],Active
same,Vd,[2],20.8 L/kg
same,Cmax,[3],174 ng/mL
same,IC50,[4],110 nM
same,AUC(0-inf),[5],463 ng·h/mL
same,Activity,MM.1R [6],Active
same,Activity,NCI-H929 [7],Active
same,inhibition,MM.1R [8],Active
same,Ratio IC50,[9],10.8
same,Activity,NCI-H929 [10],25.49%
same,Ratio IC50,[11],30
same,Activity,NCI-H929 [12],Active
same,Ratio IC50,[13],14.9
same,Tmax,[14],4.8 min
same,Activity,MM.1R [15],Active
same,Activity,MM.1R [16],Active
same,Activity,NCI-H929 [17],Active
same,half-life,[18],75 min
same,IC50,RPMI-8226 [19],1190 nM
same,Activity,NCI-H929 [20],14.14%
same,Cmax,[21],82 ng/mL
same,Activity,HAF,inactive
same,Ratio IC50,[22],30
same,Activity,MM.1R [23],Active
same,Activity,RPMI-8226 [24],Active
same,inhibition,MM.1R [25],Active
same,Activity,NCI-H929 [26],64.61%
same,Activity,MM.1R [27],Active
same,Activity,HaCaT,inactive
same,half-life,[28],403 min
same,Activity,NCI-H929 [29],Active
same,Activity,NCI-H929 [30],57.62%
same,Activity,NCI-H929 [31],Active
same,inhibition,NCI-H929 [32],Active
same,Activity,NCI-H929 [33],Active
same,Activity,MM.1R [34],Dose-dependent-effect
same,Activity,MM.1R [35],Active
same,Activity,NCI-H929 [36],Active
same,Activity,[37],Non-toxic
same,Activity,NCI-H929 [38],Active
same,Activity,MM.1R [39],Active
same,Activity,MM.1R [40],Active
same,Activity,NCI-H929 [41],Active
same,IC50 at 72 h,[42],> 100 µM
